Laboratory results reported in patent publication US20130064821A1, “METHODS AND COMPOSITIONS FOR TREATING PROSTATE CANCER” (priority 2007, published 2013).

Columns and labels:
[1] = system: LNCaP cells, secreted PSA; assay: PSA production and secretion study in LNCaP cells (Example 6, PSA ELISA); type: cell-based, human; conditions: 0.1 nM DHT, 120 hours, versus 5% CSS media alone
Description: A human hormone sensitive prostate cancer cell line, LNCaP (ATCC), was exposed to a polypeptide as described in Example 1. The effects of the polypeptide on the production and secretion of the prostate specific antigen, PSA, was then assessed.
The human prostate cancer cell line, LNCaP was obtained from American Type Tissue Collection (ATCC) and was routinely cultured in growth medium containing phenol red RPMI 1640 (Invitrogen, Auckland, New Zealand) supplemented with 10% fetal bovine serum (FBS, 15 GIBCO) and 1% antibiotic/antimycotic mixture (Invitrogen, Auckland, New Zealand). Cells were maintained at 37° C. in 5% CO2. Dilutions were made for the polypeptide (20 ng/ml) in 5% charcoal strip serum (CSS, HyClone) for in vitro experiments.
3×10^3 LNCaP cells were plated per well in quadruplicate in a Falcon 96-well plate and allowed to attach overnight at 5% CO2/37° C. in growth medium (as indicated above). The medium was replaced with fresh complete growth medium after 36 hours. […] After 120 hours in culture, cell culture media was collected from each well and PSA reading was measured in duplicate for each well. Human PSA was measured according to the manufacturers methodology using the PSA ELISA from Diagnostic Systems Laboratories (cat number: DSL-10-9700).
Data are presented as means unless otherwise indicated. Error bars represent the 95% confidence intervals.

[2] = system: LNCaP cells, secreted PSA; assay: PSA production and secretion study in LNCaP cells with T and DHT (Example 7, PSA ELISA); type: cell-based, human; conditions: 0.1 nM androgen, 120 hours, versus 5% CSS media alone, mean of 6 wells
Description: The effects of the polypeptide on the production and secretion of the prostate specific antigen, PSA, was then assessed.
The human prostate cancer cell line, LNCaP was obtained from American Type Tissue Collection (ATCC) and was routinely cultured in growth medium containing phenol red RPMI 1640 (Invitrogen, Auckland, New Zealand) supplemented with 10% fetal bovine serum (FBS, GIBCO) and 1% antibiotic/antimycotic mixture (Invitrogen, Auckland, New Zealand). Cells were maintained at 37° C. in 5% CO2. Dilutions were made for the polypeptide (20 ng/ml) in 5% charcoal strip serum (CSS, HyClone) for in vitro experiments.
3×10^3 LNCaP cells were plated per well in quadruplicate in a Falcon 96-well plate and allowed to attach overnight at 5% CO2/37° C. in growth medium (as indicated above). The medium was replaced with fresh complete growth medium after 36 hours. […] After 120 hours in culture, cell culture media was collected from each well and a PSA reading was measured in duplicate for each well. Human PSA was measured according to the manufacturers methodology using the PSA ELISA from Diagnostic Systems Laboratories (Cat number: DSL-10-9700).
Data are presented as means unless otherwise indicated.

[3] = system: LNCaP cells; assay: In vitro growth proliferation study of LNCaP cells, calcein fluorescence assay; type: cell-based, human; conditions: nilutamide 0.1 μM, 5 days (120 hours), mean of six wells
Description: A human hormone sensitive prostate cancer cell line, LNCaP1 was exposed to the AR-LBD-IgG1 FC fusion protein as described in Example 1. The effects of the polypeptide on the growth and proliferation of the cells was then assessed.
In addition, LNCaP cells were also cultured in the presence of the non-steroidal antiandrogen nilutamide
The human prostate cancer cell line, LNCaP was obtained from American Type Tissue Collection (ATCC) and was routinely cultured in growth medium containing phenol red RPM1 1640 (Invitrogen, Auckland, New Zealand) supplemented with 10% fetal bovine serum (FBS1 G1BCO) and 1% antibiotic/antimycotic miyture (Invitrogen, Auckland, New Zealand). Cells were maintained at 37° C. in 5% CO2.
2×10^3 LNCaP cells were plated per well in a Falcon 96-well plate in 5% CO2/37° C. in growth medium in growth medium containing phenol red RPMI 1640 (Invitrogen, Auckland, New Zealand) supplemented with 10% fetal bovine serum (FBS, G1BCO) and 1% antibiotic/antimycotic mixture (Invitrogen, Auckland, New Zealand). Cells were treated with either AR-LBD IgG1 Fc fusion protein (12 ng/ml ) or IgG1 Fc control protein (12 ng/ml). […] Calcein positive cells were detected using a FLUOstar OPTIMA plate reader (BMG Labtech, Victoria, Australia). […]

[4] = target: T1, sex hormone binding globulin (SHBG) (Homo sapiens, UniProt P04278); conditions: serum, men; cited from earlier work
T1 sequence (P04278 30-402): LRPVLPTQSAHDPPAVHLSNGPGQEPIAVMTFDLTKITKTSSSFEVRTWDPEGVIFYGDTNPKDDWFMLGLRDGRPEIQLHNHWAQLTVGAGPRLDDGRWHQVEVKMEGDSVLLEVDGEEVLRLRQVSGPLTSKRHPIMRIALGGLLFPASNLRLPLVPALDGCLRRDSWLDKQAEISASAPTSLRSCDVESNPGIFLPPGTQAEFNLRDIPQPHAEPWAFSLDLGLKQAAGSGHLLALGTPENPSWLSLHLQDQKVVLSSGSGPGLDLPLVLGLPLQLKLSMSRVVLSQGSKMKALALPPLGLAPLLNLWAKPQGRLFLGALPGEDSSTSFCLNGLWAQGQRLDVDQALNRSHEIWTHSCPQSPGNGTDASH

[5] = target: albumin (Homo sapiens, UniProt P02768); conditions: serum, men; cited from earlier work
Chain of albumin (P02768 25-609): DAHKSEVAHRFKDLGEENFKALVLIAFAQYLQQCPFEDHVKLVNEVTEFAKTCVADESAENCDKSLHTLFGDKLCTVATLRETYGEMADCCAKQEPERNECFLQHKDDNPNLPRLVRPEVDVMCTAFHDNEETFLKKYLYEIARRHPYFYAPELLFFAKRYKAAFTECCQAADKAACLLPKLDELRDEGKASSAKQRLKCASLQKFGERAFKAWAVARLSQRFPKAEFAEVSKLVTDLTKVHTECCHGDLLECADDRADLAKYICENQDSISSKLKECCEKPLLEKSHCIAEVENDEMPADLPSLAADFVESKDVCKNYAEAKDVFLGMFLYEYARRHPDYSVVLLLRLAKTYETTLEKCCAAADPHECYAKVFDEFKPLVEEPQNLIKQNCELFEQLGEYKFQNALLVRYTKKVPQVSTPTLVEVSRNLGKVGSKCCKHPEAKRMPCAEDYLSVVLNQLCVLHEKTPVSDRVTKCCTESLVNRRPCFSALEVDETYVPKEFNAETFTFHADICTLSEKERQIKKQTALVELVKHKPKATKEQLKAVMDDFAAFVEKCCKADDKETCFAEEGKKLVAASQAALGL

| Structure (SMILES) | effect of androgen on secreted PSA [1] | effect of androgen on secreted PSA [2] | reduction of prostate cancer cell proliferation [3] | association constant (Ka) with SHBG [4] | association constant (Ka) with albumin [5] |
| --- | --- | --- | --- | --- | --- |
| C[C@]12CCC(=O)C[C@@H]1CC[C@@H]1[C@@H]2CC[C@]2(C)[C@@H](O)CC[C@@H]12 [DHT, dihydrotestosterone] | significantly boost production of secreted PSA | strongly boost production of secreted PSA |  |  |  |
| CC1(C)NC(=O)N(c2ccc([N+](=O)[O-])c(C(F)(F)F)c2)C1=O [nilutamide] |  |  | 80% |  |  |
| C[C@]12CC[C@H]3[C@@H](CCC4=CC(=O)CC[C@@]43C)[C@@H]1CC[C@@H]2O [Testosterone, testosterone] |  | clearly increase production of PSA |  | about 1×10^9 L/mol | about 3×10^4 L/mol |
